In PubChem BioAssay AID179 (DTP/NCI, 2004) one finds EC50, IC50 and outcome data, which are given here for 73 compounds.

For this assay, the system named is CEM cells HIV-1 protection, formazan growth assay. Nature of the assay: NCI AIDS Antiviral Assay. The settings on record: for IC50: measured here: growth of uninfected CEM cells. The essentials: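 Category rules: moderately active means at least 50% protection on retest, and confirmed active means 100% protection reproducibly. The underlying data came from a formazan growth assay in HIV-1-infected CEM cells.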

Calls of active or inactive are those of the source.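 Rule for the calls: active = compounds giving half or more protection of infected cells from virus-caused growth loss, again on retest; inactive = the rest.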

As to `CC12c3ccccc3C(OC=O)(c3ccccc31)C1(C)c3ccccc3C2(OC=O)c2ccccc21`, the EC50 (in general, the concentration at which the effect is half-maximal) was more than 3.09 µM and the IC50 – broadly, the midpoint of a concentration-inhibition curve – was more than 3.09 µM.

As to `Cc1cc(N(CCC#N)S(=O)(=O)c2ccccc2)ccc1C=Nc1cccc(C(=O)O)c1`, the EC50 is more than 151 µM and the IC50 is more than 151 µM.

`Oc1cc(O)c2c(c1)O[C@H](c1cc(O)c(O)c(O)c1)[C@H](O)C2`: the EC50 is more than 200 µM and the IC50 stood at 0.692 µM.

On to `Cc1ccccc1NC(=O)C(=O)CC(=O)c1sc(-n2nc(-c3ccccc3)cc2-c2ccccc2)nc1C`, for which the EC50 is more than 479 µM and the IC50 is more than 479 µM.

On to `O=C(CCNC12CC3CC(CC(C3)C1)C2)c1ccccc1`, for which the outcome was inactive.

Turning to `C=CCC1(OCc2ccccc2)C(=O)C(=O)OC1C1COC(C)(C)O1` (stereo not drawn), the EC50 was more than 200 µM and the IC50 was more than 200 µM.

In the case of `[N-]=[N+]=Nc1ccccc1C(=O)N1C(=O)c2ccccc2C(=O)N(C(=O)c2ccccc2N=[N+]=[N-])c2ccccc21`, the EC50 was more than 200 µM and the IC50 was 72.4 µM.

With `COc1ccc(OC)c(CCc2ccccc2CC(=O)O)c1`, the EC50 was more than 832 µM and the IC50 stood at 501 µM.

Regarding `CN(C)c1nc(N(C)C)n2c(-c3ccccc3[N+](=O)[O-])nnc2n1`, the EC50 is more than 60.3 µM and the IC50 is 41.7 µM.

In the case of `CC[n+]1c2ccc(C)cc2nc2c3ccccc3c(N)cc21`, the EC50 is more than 200 µM and the IC50 was determined as 1.02 µM.

For `CCOC(=O)C1C2CCC(O2)C1C(=O)O` (stereo not drawn), the EC50 was more than 200 µM and the IC50 came out at 21.4 µM.

For the compound `O=S(=O)(O)c1cc(N=Nc2cc(S(=O)(=O)O)c3cccnc3c2O)ccc1/C=C/c1ccc(N=Nc2cc(S(=O)(=O)O)c3cccnc3c2O)cc1S(=O)(=O)O` (tested in a mixture with another compound), the EC50 is 2.95 µM and the IC50 turned out to be 50.1 µM.

For the compound `COc1ccc(-n2cnc3c(NCC(=O)O)ncnc32)cc1`, the EC50 is more than 200 µM and the concentration for half-maximal inhibition (IC50) is more than 200 µM.

On to `O=C(Cc1nc(-c2ccccc2)cc(=O)n1-c1ccccc1Cl)c1ccncc1`, for which the EC50 was more than 1.35 µM and the IC50 was more than 1.35 µM.

For the compound `CC(=O)SCC1CC[C@]2(C)C3CC[C@]4(C)C(C(C)CCC(=O)O)CCC4[C@@H]3CC[C@@H]2C1` (stereo partly drawn), the EC50 is more than 5.89 µM and the IC50 is more than 5.89 µM.

In the case of `OCc1ccc2c(c1)CC1(Cc3ccccc3C1)C2`, the EC50 is more than 200 µM and the IC50 was 20 µM.

Take `COc1ccc(/C=C/C(=O)Oc2cc(O)cc(O)c2)cc1`: the EC50 is more than 200 µM and the IC50 was 4.57 µM.

Take `CC12Nc3c(Cl)cc(Cl)cc3N1C(=O)c1ccccc12` (stereo not drawn): the EC50 was more than 200 µM and the IC50 was 87.1 µM.

Consider `C[N+](C)(C)CC(=O)N/N=C(\C(=O)NC1=C(Cl)C(=O)c2ccccc2C1=O)C(C#N)c1nc(-c2ccc([N+](=O)[O-])cc2)cs1` (stereo not drawn), for which the outcome was inactive.

In the case of `Cc1ccc(S(=O)(=O)n2ccn3c(=O)cc(C)nc23)cc1`, the EC50 is more than 200 µM and the IC50 was more than 200 µM.

As to `NC(=O)Nn1c2c(c3c1CCCC3)CCCC2`, the result was inactive.

On to `CCN(CC)CCCC(C)Nc1c2ccc(Cl)cc2nc2c(Cl)cc(Cl)cc12` (stereo not drawn), for which the EC50 was more than 200 µM and the IC50 is 7.94 µM.

Regarding `Cc1cccc2c(NCCCN(C)C)c3c([N+](=O)[O-])ccc(C)c3nc12`, the EC50 was more than 2 µM and the IC50 is 0.162 µM.

Turning to `CCOC(=O)Oc1cc2c(c(OC)c1OC)-c1ccc(OC)c(=O)cc1C(NC(C)=O)CC2` (stereo not drawn), the EC50 was more than 2 µM and the IC50 stood at 0.00525 µM.

Consider `O=CC12C3CCC1C2C(=O)C3` (stereo not drawn), for which the result was inactive and the IC50 is more than 200 µM.

As to `O=C(O)C1C2C=CC(C(/C=C/c3ccccc3)N2)C1C(=O)O` (stereo not drawn), the EC50 is more than 200 µM and the IC50 was more than 200 µM.

Take `COc1ccc(/C=C/C(=O)O)cc1OC`: the EC50 is more than 1200 µM and the IC50 was more than 1200 µM.

With `COc1cc2c3c(c1OC)C(=O)C(=O)C1=C3N(CCC1)CC2`, the result was inactive.

`CN1CCC2(CC1)C(=O)N(N1CCCCCC1)C(=O)N2c1ccccc1`: the EC50 was more than 200 µM and the IC50 was more than 200 µM.

For the compound `O=c1/c(=C/c2ccccc2[N+](=O)[O-])sc2nnc(-c3ccco3)n12`, the EC50 was more than 29.5 µM and the IC50 is more than 29.5 µM.

Turning to `COC(=O)c1ccccc1/C=C1\Cc2c(ccc3c2CCC3)C1=O`, the EC50 is more than 151 µM and the IC50 is more than 151 µM.

Turning to `O=S(=O)(O)CCN(CCO)CCO`, the EC50 is more than 200 µM and the IC50 was more than 200 µM.

On to `O=c1/c(=C/c2cccc3ccccc23)sc2nc3ccccc3n12`, for which the EC50 is more than 30.2 µM and the IC50 was more than 30.2 µM.

As for `C=C(C)C12CC3/C(=N\O)C(C1)C(C)C(/C3=N\O)[C@@]2(C)O` (stereo partly drawn), the EC50 was more than 200 µM and the concentration for half-maximal inhibition (IC50) is more than 200 µM.

As for `CC#CCCN(CC#N)Cc1ccccc1`, the EC50 was more than 200 µM and the IC50 is more than 200 µM.

Consider `COc1cc([C@H]2Oc3c(OC)cc(/C=C/C(N)=O)cc3[C@@H]2C(N)=O)ccc1O`, for which the EC50 is more than 200 µM and the IC50 is more than 200 µM.

Take `COc1ccc(/C=C\c2cc(OC)c(OC)c(OC)c2)cc1OC(=O)CC(N)C(=O)O` (stereo not drawn): the EC50 is more than 0.2 µM and the IC50 came to 0.000309 µM.

With `CCOc1ccccc1NC(=O)CCC(=O)OC`, the EC50 was more than 1000 µM and the IC50 is more than 1000 µM.

Turning to `C=CCc1cc(OC)c2c(c1)C(O)CC(c1ccc(OC)c(OC)c1)O2` (stereo not drawn), the EC50 is more than 263 µM and the IC50 is more than 263 µM.

As to `O=C(c1cc(Cl)c(O)c(C(=O)O)c1)c1cc(Cl)c(O)c(C(=O)O)c1`, the EC50 was more than 61.7 µM and the IC50 is 56.2 µM.

As to `COc1cccc(NC(=O)C(=O)C(C(=O)c2ccccc2F)C2OC(=O)c3ccccc32)c1` (stereo not drawn), the EC50 is more than 288 µM and the IC50 was 10.7 µM.

Regarding `Cc1cc(-n2nnnc2-c2ccc([N+](=O)[O-])cc2)no1`, the EC50 is more than 5.01 µM and the concentration for half-maximal inhibition (IC50) is 4.37 µM.

On to `O=C1C2C=CC1C1C3OC3C(=O)C21` (stereo not drawn), for which the EC50 is more than 708 µM and the IC50 is more than 708 µM.

As to `c1scc2c1COCCOCCOCCOCCOCCOC2`, the EC50 was more than 724 µM and the IC50 was 646 µM.

In the case of `C/C=C1\C=[N+]([O-])C2CC1C(C(=O)OC)C13C[C@@H](OC)OC21Nc1ccccc13` (stereo partly drawn), the outcome was inactive.

In the case of `Cc1cccc(N=C2NC(=O)C(CC(=O)Nc3ccccc3Cl)S2)c1` (stereo not drawn), the EC50 is more than 10 µM and the IC50 was more than 10 µM.

In the case of `COC(=O)/C=C1\C(CO[Si](C)(C)C(C)(C)C)OC(n2ccc(=O)[nH]c2=O)C1O[Si](C)(C)C(C)(C)C` (stereo not drawn), the EC50 was more than 200 µM and the IC50 was 8.32 µM.

As for `Cc1cc(N=O)ccc1O`, the EC50 is more than 200 µM and the half-maximal inhibitory concentration (IC50) worked out at 3.63 µM.

With `COc1cc(-c2ccccc2)cn2c1nc1ccccc12`, the EC50 is more than 200 µM and the IC50 is 11.5 µM.

`Nc1nc(Cl)cc(OCC2(CO)CCCCC2)n1`: the EC50 is more than 200 µM and the IC50 was determined as 53.7 µM.

On to `O=C1OC(O)C(Oc2ccc(Cl)cc2)=C1Cl` (stereo not drawn), for which the EC50 is more than 437 µM and the IC50 was 195 µM.

On to `NC(c1ccccc1)P(=O)(OCc1ccc([N+](=O)[O-])cc1)OCc1ccc([N+](=O)[O-])cc1` (stereo not drawn), for which the EC50 is more than 87.1 µM and the IC50 was 53.7 µM.

`CCOC(=O)N/N=C/C1=NN(C(=O)OCC)S(=O)C1C` (stereo not drawn): the EC50 was more than 200 µM and the IC50 is more than 200 µM.

`COc1ccc2c(C)c(CNc3ccccc3)c(=O)oc2c1OC`: the EC50 is more than 11 µM and the IC50 was more than 11 µM.

With `Nc1nnc[se]1`, the EC50 was more than 200 µM and the IC50 was 3.63 µM.

For the compound `N#CCc1ccc(C(C#N)/C(CCCC(=O)Nc2cccc([N+](=O)[O-])c2)=N/NC(N)=S)cc1` (stereo not drawn), the result was inactive.

Take `Cc1cc(Cl)c(=O)n(-c2ccccc2)n1`: the EC50 was more than 162 µM and the IC50 was more than 162 µM.

On to `C#CCOCn1cnc2c(=S)nc[nH]c21`, for which the EC50 was more than 9.12 µM and the IC50 was more than 9.12 µM.

For `O=C(NC(=O)c1ccccc1[N+](=O)[O-])Nc1ccc(Oc2ncc(Cl)cn2)c([N+](=O)[O-])c1`, the outcome was inactive.

For `CN(C=O)/C=C/c1cc(O)ccc1O`, the result was inactive.

`COC(=O)c1onc(C2OC(C)(C)OC2C(O)COC(c2ccccc2)(c2ccccc2)c2ccccc2)c1C(=O)OC` (stereo not drawn): the EC50 was more than 200 µM and the IC50 amounted to 15.1 µM.

Take `COC(=O)c1ccccc1NCc1cc(O)ccc1O`: the EC50 was more than 200 µM and the IC50 came to 30.9 µM.

For the compound `CC[P+](C#Cc1ccccc1)(c1ccccc1)c1ccccc1`, the EC50 was more than 20 µM and the IC50 was determined as 0.49 µM.

Regarding `O=C(NNC(=O)c1ccccc1Cl)c1ccccc1Cl`, the EC50 was more than 200 µM and the IC50 was more than 200 µM.

With `Nc1nc(N)c(N)c(Nc2ccccc2)n1`, the EC50 was more than 200 µM and the IC50 was determined as 20.4 µM.

With `CCOC(=O)c1nc2cc(F)cc(F)c2[nH]c1=O`, the EC50 is more than 200 µM and the 50% inhibitory concentration (IC50) was found to be 162 µM.

As for `NCCCNCCCCN(CCCN)/[N+]([O-])=N\O`, the EC50 is more than 6030 µM and the IC50 is 145 µM.

As for `O=C(c1ccccc1)N1C(=O)N(c2ccccc2)C(=Nc2ccccc2)C1=Nc1ccccc1`, the EC50 is more than 200 µM and the IC50 was found to be 19.1 µM.

As for `O=C1CCCN1CO`, the EC50 is more than 200 µM and the IC50 was more than 200 µM.

For `CCOC(=O)C1(Cc2c[nH]c3ccccc23)C(O)CCCN1C(C)=O` (stereo not drawn), the EC50 is more than 200 µM and the IC50 was 155 µM.

In the case of `COc1ccc(N2C(N)=C(C#N)C(C#N)(C#N)C2c2cccc([N+](=O)[O-])c2)cc1` (stereo not drawn), the EC50 was more than 200 µM and the half-maximal inhibitory concentration (IC50) was found to be 5.89 µM.

As for `C[C@H](C/C=C/C(C)(C)O)[C@H]1CC[C@@]2(C)[C@@H]3CC[C@H]4C(C)(C)[C@@H](O)CC[C@@]45C[C@@]35CC[C@]12C`, the EC50 was more than 200 µM and the IC50 was determined as 4.68 µM.

With `O=Nc1c[nH]c(=O)[nH]c1=O`, the EC50 was more than 200 µM and the IC50 was more than 200 µM.
